From PubChem BioAssay (NCI)
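Assay format: 96-well plates, 48-hour exposure. Here, GI50 denotes the concentration required for 50% inhibition of growth. TGI: total growth inhibition.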

Tests used:
Assay in all cases: NCI tumour cell line growth inhibition, 48 h
SNB-75 CNS = tested on: SNB-75 CNS
HCT-116 colon = tested on: HCT-116 colon
KM12 colon = tested on: KM12 colon
SK-OV-3 ovarian = tested on: SK-OV-3 ovarian
RXF 393 renal = tested on: RXF 393 renal
UACC-62 melanoma = tested on: UACC-62 melanoma
A549 NSCLC = tested on: A549 NSCLC
SK-MEL-2 melanoma = tested on: SK-MEL-2 melanoma
NCI/ADR-RES ovarian = tested on: NCI/ADR-RES ovarian
OVCAR-4 ovarian = tested on: OVCAR-4 ovarian

Row | Structure (SMILES) | TGI (SNB-75 CNS) [µM] | TGI (HCT-116 colon) [µM] | TGI (KM12 colon) [µM] | TGI (SK-OV-3 ovarian) [µM] | TGI (RXF 393 renal) [µM] | TGI (UACC-62 melanoma) [µM] | TGI (A549 NSCLC) [µM] | TGI (SK-MEL-2 melanoma) [µM] | TGI (NCI/ADR-RES ovarian) [µM] | GI50 (SNB-75 CNS) [µM] | GI50 (HCT-116 colon) [µM] | TGI (OVCAR-4 ovarian) [µM] | GI50 (SK-OV-3 ovarian) [µM] | GI50 (RXF 393 renal) [µM] | GI50 (UACC-62 melanoma) [µM] | GI50 (A549 NSCLC) [µM] | GI50 (SK-MEL-2 melanoma) [µM] | GI50 (NCI/ADR-RES ovarian) [µM] | GI50 (OVCAR-4 ovarian) [µM] | GI50 (KM12 colon) [µM]
1 | Cc1ccc(S(=O)(=O)N/N=C(/c2nc3ccc([N+](=O)[O-])cc3[nH]c2=O)C(O)c2ccc(C(O)/C(=N\NS(=O)(=O)c3ccc(C)cc3)c3nc4ccc([N+](=O)[O-])cc4[nH]c3=O)cc2)cc1 (centres undefined) | > 100 | > 100 | > 100 | > 100 | > 100 | > 100 | > 100 | > 100 | – | – | – | – | – | – | – | – | – | – | – | –
2 | COC(=O)CSSCc1ccc([N+](=O)[O-])cc1 | 55.2 | 59.6 | 38.9 | 46.8 | 36.2 | 31.5 | 88.8 | 42.4 | 47.1 | – | – | – | – | – | – | – | – | – | – | –
3 | COc1ccc(/C=C/C(=O)c2sc(-n3nc(-c4ccccc4)cc3-c3ccccc3)nc2C)cc1 | > 100 | > 100 | > 100 | > 100 | > 100 | > 100 | > 100 | > 100 | – | 56.1 | > 100 | > 100 | > 100 | > 100 | > 100 | > 100 | > 100 | – | – | –
4 | COc1cc(CCc2ccc(N)cc2)cc(OC)c1OC | > 100 | > 100 | > 100 | > 100 | > 91.1 | > 89.8 | > 100 | 82.6 | – | – | – | > 100 | – | – | – | – | – | – | – | –
5 | CC(=O)C1=C(O)C2C3c4c[nH]c5cccc(c45)CC3C(C)(C)N2C1=O (centres undefined) | – | – | > 100 | > 100 | – | > 100 | > 100 | 44.6 | – | – | – | > 100 | – | – | – | – | – | – | – | –
6 | CC(=O)OC1COC(n2c(=S)n(-c3ccccc3)c(=O)c3ccccc32)C(OC(C)=O)C1OC(C)=O (centres undefined) | > 100 | > 100 | > 100 | > 100 | > 100 | > 100 | > 100 | > 100 | – | – | – | > 100 | – | – | – | – | – | – | – | –
7 | CC(SC(=O)Nc1ccc(N=Nc2ccccc2)cc1)C(=O)O (centres undefined) | 46.4 | > 100 | > 100 | – | > 100 | > 100 | > 100 | > 100 | – | – | – | > 100 | – | – | – | – | – | – | – | –
8 | CC[C@H](C)[C@H](NC(=O)CN(C)C)C(=O)N(C)[C@H](C[C@@H](OC(C)=O)c1nc(C(=O)NC23CC(C(=O)OC)(C2)C3)cs1)C(C)C | > 25 | > 25 | > 25 | > 25 | – | > 25 | > 25 | > 25 | > 25 | 0.0883 | 0.381 | > 25 | 1.64 | – | 0.237 | 1.62 | 1.51 | > 21.4 | 4.64 | 0.478
9 | CCOc1ccc(NC(=O)CC2C(=O)Nc3ccccc3S2(=O)=O)cc1 (centres undefined) | 43.2 | > 100 | > 100 | – | > 100 | – | > 100 | > 100 | – | – | – | > 100 | – | – | – | – | – | – | – | –
10 | c1ccc2c(c1)cc1n2CC2CN=NC12 (centres undefined) | > 100 | > 100 | > 100 | > 100 | > 100 | > 100 | > 100 | > 100 | – | – | – | > 100 | – | – | – | – | – | – | – | –
11 | C=CCc1cc(OC)c2c(c1)C(OC)CC(c1ccc(OC)c(OC)c1)O2 (centres undefined) | > 100 | > 100 | > 100 | > 100 | – | > 100 | > 100 | > 100 | – | – | – | > 100 | – | – | – | – | – | – | – | –
12 | COc1cc2c3c(n(C)c(=O)c2cc1OC)-c1ccc(C#N)cc1C3=O | – | > 100 | > 100 | > 100 | > 100 | > 100 | > 100 | > 100 | > 100 | – | > 100 | > 100 | > 100 | > 100 | > 100 | > 100 | > 100 | > 100 | > 100 | > 100
13 | O=C1Cc2cc(C(=O)NC3C[C@H]4CC[C@@H](C3)N4S(=O)(=O)CC3CCN(CCCC(F)(F)F)CC3)c(Cl)cc2N1 (some centres undefined) | > 100 | > 100 | > 100 | > 100 | – | > 100 | > 100 | > 100 | > 100 | > 100 | > 100 | > 100 | > 100 | – | > 100 | > 100 | > 100 | > 100 | > 100 | > 100
14 | CC(=O)NNc1nc(C)c(C(=O)NNC(=O)C(=O)Nc2ccc(Cl)cc2Cl)s1 | – | > 100 | > 100 | > 100 | – | 57.4 | > 100 | > 100 | – | – | – | 56.8 | – | – | – | – | – | – | – | –
15 | COc1cccc(/C=C2\COc3ccc(-c4ccccc4)cc3C2=O)c1 | 4.8 | 3.47 | – | 35.8 | – | 12.8 | 18.7 | 5.27 | 14.5 | 1.99 | 1.68 | 7.63 | 5.25 | – | 3.06 | 3.17 | 2.38 | 3.63 | 2.79 | –
16 | CC(=O)O[C@H]1CC[C@@]2(C)C(=CC[C@@H]3C2CC[C@]2(C)Nc4nc5ccccc5cc4CC32)C1 (some centres undefined) | 8.68 | 3.8 | 12.9 | 8.4 | 5.09 | 22.9 | 12.9 | 31.7 | – | – | – | 21.4 | – | – | – | – | – | – | – | –
17 | C[C@]12CCC3[C@@H](CC[C@@H]4c5nonc5CC[C@]34C)C1CC[C@@H]2O (some centres undefined) | 77.8 | – | > 100 | 84.9 | 69.6 | > 100 | 85.2 | 48.3 | – | – | – | 82.4 | – | – | – | – | – | – | – | –
18 | O=C(CC(Cl)=C(Cl)Cl)c1cccc(Cl)c1Cl | – | > 100 | > 100 | > 100 | > 100 | > 100 | > 100 | > 100 | > 100 | – | 42.6 | > 100 | > 100 | > 100 | 52.4 | > 100 | > 100 | 85.1 | > 100 | > 100
19 | CC(C)(C)C(C#N)(C#N)c1ccc(C(C#N)(C#N)C(C)(C)C)nn1 | 75.2 | – | > 100 | > 100 | > 100 | > 100 | > 100 | > 100 | – | – | – | > 100 | – | – | – | – | – | – | – | –
